Measurements: ChEMBL document CHEMBL1201862, “PubChem BioAssay data set” (2004)
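Compound exposure: 48 hours, 5 concentrations, 96-well plates. Here, GI50 denotes the concentration required for 50% inhibition of growth.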 The source made the active and inactive calls. Rule as the data show it: active = GI50 up to about 1.1 µM and inactive = higher.

Experiments:
Test in all cases: NCI anticancer screen, dose series, 48 h
OVCAR-3 = tested on: OVCAR-3
HOP-18 = tested on: HOP-18
UACC-257 = tested on: UACC-257
A498 = tested on: A498
SK-MEL-28 = tested on: SK-MEL-28
OVCAR-5 = tested on: OVCAR-5
HOP-92 = tested on: HOP-92
U-251 = tested on: U-251
NCI-H226 = tested on: NCI-H226
IGROV-1 = tested on: IGROV-1
DMS-273 = tested on: DMS-273
NCI-H460 = tested on: NCI-H460
COLO 205 = tested on: COLO 205
M14 = tested on: M14
HCT-15 = tested on: HCT-15
Malme-3M = tested on: Malme-3M
KM12 = tested on: KM12
SW-620 = tested on: SW-620
HCT-116 = tested on: HCT-116
CCRF-CEM = tested on: CCRF-CEM
SN12C = tested on: SN12C
SK-MEL-5 = tested on: SK-MEL-5
NCI-H522 = tested on: NCI-H522
EKVX = tested on: EKVX
KM-20L2 = tested on: KM-20L2
HT-29 = tested on: HT-29
ACHN = tested on: ACHN
DLD-1 = tested on: DLD-1
SF-295 = tested on: SF-295
NCI-H23 = tested on: NCI-H23
786-0 = tested on: 786-0
CAKI-1 = tested on: CAKI-1
M19-MEL = tested on: M19-MEL
SK-OV-3 = tested on: SK-OV-3
SNB-19 = tested on: SNB-19
LOX IMVI = tested on: LOX IMVI
XF498 = tested on: XF498
A549 = tested on: A549
SF-268 = tested on: SF-268
SK-MEL-2 = tested on: SK-MEL-2
HCC 2998 = tested on: HCC 2998
SR = tested on: SR
SF-539 = tested on: SF-539
RPMI-8226 = tested on: RPMI-8226
HL-60 = tested on: HL-60
DMS-114 = tested on: DMS-114
RXF 393 = tested on: RXF 393
MOLT-4 = tested on: MOLT-4
LXFL 529 = tested on: LXFL 529
TK-10 = tested on: TK-10
SNB-75 = tested on: SNB-75
OVCAR-8 = tested on: OVCAR-8
HOP-62 = tested on: HOP-62
K562 = tested on: K562
SNB-78 = tested on: SNB-78
UACC-62 = tested on: UACC-62
UO-31 = tested on: UO-31
RXF 631 = tested on: RXF 631
OVCAR-4 = tested on: OVCAR-4

With `Nc1cccc(C(=O)/C=C/c2ccccc2O)c1` the GI50 (OVCAR-3) was > 100 µM (inactive), the GI50 (HOP-18) was 84.3 µM (inactive) and the GI50 (UACC-257) was > 100 µM (inactive). For the same compound, the GI50 (A498) was > 100 µM (inactive), the GI50 (SK-MEL-28) was > 100 µM (inactive) and the GI50 (OVCAR-5) was > 100 µM (inactive). The GI50 (HOP-92) was > 100 µM (inactive), the GI50 (U-251) was 98.6 µM (inactive) and the GI50 (NCI-H226) was > 100 µM (inactive). The GI50 (IGROV-1) was > 100 µM (inactive), the GI50 (DMS-273) was > 100 µM (inactive) and the GI50 (NCI-H460) was > 100 µM (inactive). For the same compound, the GI50 (COLO 205) was > 100 µM (inactive), the GI50 (M14) was > 100 µM (inactive) and the GI50 (HCT-15) was greater than 100 µM. The GI50 (Malme-3M) was > 100 µM (inactive), the GI50 (KM12) was > 100 µM (inactive) and the GI50 (SW-620) was 12.2 µM (inactive). The GI50 (HCT-116) was > 100 µM (inactive), the GI50 (CCRF-CEM) was 27.5 µM (inactive) and the GI50 (SN12C) was > 100 µM (inactive). For the same compound, the GI50 (SK-MEL-5) was > 100 µM (inactive), the GI50 (NCI-H522) was 59.4 µM (inactive) and the GI50 (EKVX) was > 100 µM (inactive). For the same compound, the GI50 (KM-20L2) was > 100 µM (inactive), the GI50 (HT-29) was 68.2 µM (inactive) and the GI50 (ACHN) was > 100 µM (inactive). For the same compound, the GI50 (DLD-1) was > 100 µM (inactive), the GI50 (SF-295) was > 100 µM (inactive) and the GI50 (NCI-H23) was > 100 µM (inactive). For the same compound, the GI50 (786-0) was 33.1 µM (inactive), the GI50 (CAKI-1) was > 100 µM (inactive) and the GI50 (M19-MEL) was > 100 µM (inactive). For the same compound, the GI50 (SK-OV-3) was > 100 µM (inactive), the GI50 (SNB-19) was > 100 µM (inactive) and the GI50 (LOX IMVI) was 31.4 µM (inactive). For the same compound, the GI50 (XF498) was > 100 µM (inactive), the GI50 (A549) was > 100 µM (inactive) and the GI50 (SF-268) was > 100 µM (inactive). The GI50 (SK-MEL-2) was > 100 µM (inactive), the GI50 (HCC 2998) was > 100 µM (inactive) and the GI50 (SR) was 44.7 µM (inactive). The GI50 (SF-539) was > 100 µM (inactive), the GI50 (RPMI-8226) was 16.2 µM (inactive) and the GI50 (HL-60) was 20.7 µM (inactive). For the same compound, the GI50 (DMS-114) was 46.7 µM (inactive), the GI50 (RXF 393) was 85.5 µM (inactive) and the GI50 (MOLT-4) was > 100 µM (inactive). For the same compound, the GI50 (LXFL 529) was 71.4 µM (inactive), the GI50 (TK-10) was > 100 µM (inactive) and the GI50 (SNB-75) was 13.2 µM (inactive). The GI50 (OVCAR-8) was > 100 µM (inactive), the GI50 (HOP-62) was > 100 µM (inactive) and the GI50 (K562) was 32.9 µM (inactive). For the same compound, the GI50 (SNB-78) was > 100 µM (inactive), the GI50 (UACC-62) was > 100 µM (inactive) and the GI50 (UO-31) was > 100 µM (inactive).
In the case of `CC(=O)N(C)C=C1C(=O)N(C)C(=O)N(C)C1=O`, the GI50 (OVCAR-3) is reported as > 100 µM (inactive), the GI50 (HOP-18) is reported as > 100 µM (inactive) and the GI50 (UACC-257) is reported as > 100 µM (inactive). The GI50 (A498) was > 100 µM (inactive), the GI50 (SK-MEL-28) was > 100 µM (inactive) and the GI50 (OVCAR-5) was > 100 µM (inactive). The GI50 (HOP-92) was > 100 µM (inactive), the GI50 (U-251) was > 100 µM (inactive) and the GI50 (RXF 631) was > 100 µM (inactive). For the same compound, the GI50 (OVCAR-4) was > 100 µM (inactive), the GI50 (NCI-H226) was > 100 µM (inactive) and the GI50 (DMS-273) was > 100 µM (inactive). The GI50 (NCI-H460) was > 100 µM (inactive), the GI50 (M14) was > 100 µM (inactive) and the GI50 (HCT-15) was greater than 100 µM. For the same compound, the GI50 (Malme-3M) was > 100 µM (inactive), the GI50 (KM12) was > 100 µM (inactive) and the GI50 (SW-620) was > 100 µM (inactive). For the same compound, the GI50 (HCT-116) was > 100 µM (inactive), the GI50 (CCRF-CEM) was > 100 µM (inactive) and the GI50 (SN12C) was > 100 µM (inactive). For the same compound, the GI50 (SK-MEL-5) was > 100 µM (inactive), the GI50 (EKVX) was > 100 µM (inactive) and the GI50 (KM-20L2) was > 100 µM (inactive). The GI50 (HT-29) was > 100 µM (inactive), the GI50 (ACHN) was > 100 µM (inactive) and the GI50 (DLD-1) was > 100 µM (inactive). The GI50 (SF-295) was > 100 µM (inactive), the GI50 (NCI-H23) was > 100 µM (inactive) and the GI50 (786-0) was > 100 µM (inactive). For the same compound, the GI50 (CAKI-1) was > 100 µM (inactive), the GI50 (M19-MEL) was > 100 µM (inactive) and the GI50 (SNB-19) was > 100 µM (inactive). For the same compound, the GI50 (LOX IMVI) was > 100 µM (inactive), the GI50 (XF498) was > 100 µM (inactive) and the GI50 (A549) was > 100 µM (inactive). For the same compound, the GI50 (SK-MEL-2) was > 100 µM (inactive), the GI50 (HCC 2998) was > 100 µM (inactive) and the GI50 (SR) was > 100 µM (inactive). For the same compound, the GI50 (SF-539) was > 100 µM (inactive), the GI50 (RPMI-8226) was > 100 µM (inactive) and the GI50 (HL-60) was > 100 µM (inactive). For the same compound, the GI50 (DMS-114) was > 100 µM (inactive), the GI50 (RXF 393) was > 100 µM (inactive) and the GI50 (MOLT-4) was > 100 µM (inactive). The GI50 (LXFL 529) was > 100 µM (inactive), the GI50 (TK-10) was > 100 µM (inactive) and the GI50 (SNB-75) was > 100 µM (inactive). The GI50 (OVCAR-8) was > 100 µM (inactive), the GI50 (K562) was > 100 µM (inactive) and the GI50 (UACC-62) was > 100 µM (inactive). The GI50 (UO-31) was > 100 µM (inactive).
